# Key:
# [1] = system: S180 cells, parental; assay: Modulation of intrinsic drug resistance, parental S180; type: cell-based, murine; settings: S180 parental
# Procedure, shortened: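 Parental S180 cells at 1×10^5 cells/ml treated with modulator (10^-6 M up to non-toxic IC10-20 or solubility limit) added minutes before VBL, VCR or ADM; growth counted electronically after 72 h. Sensitivity index = drug IC50 alone / drug IC50 with modulator; duplicates from two experiments.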
# [2] = system: P388 R cells; assay: Sensitization of P388 R cells to antitumorous agents; type: cell-based, mouse
# Experimental: (§1) The sensitization of C-20'-deoxy C-20'-deethyl vincovaline (D-DEV) has been tested on sensitive and resistants P388 cell lines originating from mouse lympnoma.
# (§2) The resistance to anticancerous drug has been induced on DBA2 mouses bearing P388 cells ascites and maintained by treatment with adryamycin.
# The P388 R cells are incubated at 37° C. during 24 hours with constant subtoxic concentrations of antitumoral drugs and increasing concentrations of modulators from 1 to 100 μM.
# [3] = system: S180 MDR cell strains A3 and A10; assay: Modulation of acquired drug resistance in the S180 MDR cell strains A3 and A10; type: cell-based, murine; settings: VBL, VCR and ADM
# Procedure, shortened: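 MDR S180 lines in tubes (1×10^5 cells/ml) exposed to graded modulator added minutes before ADM, VBL or VCR at parental IC70s (2.0×10^-7 M ADM, 1.5×10^-8 M VBL, 4.5×10^-8 M VCR). Growth counted electronically at 72 h. Reversing concentration = minimum modulator giving 70% inhibition; duplicates, two experiments.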
# [4] = system: RCC-5 cells; assay: Modulation of intrinsic drug resistance, RCC-5; type: cell-based, rat; settings: VCR
# Experimental: Mid-exponential cultures were used for all assays. The RCC-2 and RCC-5 cell lines were seeded into 24-well plates at 2×10^4 cells/well and allowed to attach to the substratum for 16-18 h prior to treatment. The S180 cell lines were seeded into culture tubes at 1×10^5 cells/ml and treated immediately. Cytotoxicity was determined by quantitation of population growth after 72 h incubation by electronic particle counter (Coulter Electronics, Hialeah, Fla.). The human tumor cell lines were used in a clonogenic assay for cytotoxicity. Cells were seeded at 300 cells/dish, incubated overnight and then treated. Colonies were scored 7-11 days later. In all assays of analog modulation of drug sensitivity, the analog was added minutes prior to the addition of cytotoxic drug.
# *calculated as the IC50 of the drug alone divided by the IC50 o
# the [drug modulator] combination. Data are presented from tretments with
# the nontoxic concentration limit of each analog as noted.
# FIG. 9 represents the modulation of VCR sensitivity in the RCC-12 (A) and RCC-5 (B) cell lines by the analog C-20'-deoxy deethyl vincovaline. Population growth was determined after 72 hours incubation in the absence (o), or presence of 10 μM (o), 20 μM (Δ), or 50 μM of analog. Data presented are from a typical experiment.
# [5] = system: S180/A10 cells; assay: Modulator potency in MDR cells: reversal of acquired resistance, S180/A10; type: cell-based, murine
# Procedure, shortened: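 S180/A3 and S180/A10 MDR cells at 1×10^5 cells/ml exposed to a modulator concentration range, added minutes before VBL, VCR or ADM at parental-cell IC70s. Growth counted by electronic particle counter after 72 h. Value is the minimal modulator concentration restoring 70% growth inhibition; mean of 2-3 experiments.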
# [6] = Viability (MTT test) of P388 R cells; type: cell-based, mouse; settings: mouse; resistant cells P388 R, 24 h and 48 h; read-out: concentrations up to which no cytotoxicity is seen
# Source text: as §1, §2
# This study has been carried out at least in triplicate.
compound,measurement,setting,value
"CC[C@]12C=CCN3CC[C@@]4(c5cc([C@]6(C(=O)OC)C[C@H]7CCCN(CCc8c6[nH]c6ccccc86)C7)c(OC)cc5N(C)[C@H]4[C@@](O)(C(=O)OC)[C@@H]1OC(C)=O)[C@@H]32 [analog n° 352, C-20'-deoxy-20'-deethyl-C-14', 16'-epi-VBL]",maximum degree of sensitization to ADM,[1]; ADM,5.5 fold
same,maximum degree of sensitization to VBL and VCR,[1]; VBL and VCR,2.3-2.7 fold
same,percentage of cellular survival,"[2]; modulator 30 μM, ADM 1.72 μM, 1440 min",50%
same,modulator effect on P388 R cells with ADM (in words),"[2]; modulator 100 μM, ADM 0.17 μM",no effect
same,range of resistance levels over which parental sensitivity was restored,[3],3-17 fold
same,maximum sensitization to VCR,[4]; RCC-5,28 fold
same,concentration overcoming the greater intrinsic resistance of RCC-5 to VCR,[4]; RCC-5 compared to RCC-2,10 to 20 µM
same,reversal of high level ADM resistance (in words),"[5]; A10 cells, 90 fold ADM resistance",can reverse high level (90-fold) ADM resistance in MDR cells
same,reversal of high level ADM resistance,"[5]; ADM, 90-fold resistance, A10",80%
same,MNTC,[6],≥ 100 µM
